Earlier results, collected in US7829124B2, “Use of Phyllanthus constituents for treating or preventing infections caused by hepatitis B-viruses” (priority 2001, dated 2010).

Tests used:
[1] = target: T1, cAMP-dependent protein kinase of the rat liver (Rattus norvegicus, UniProt P27791)
T1 construct: the cAMP-dependent protein kinase of the rat liver; host or cells: rat liver

[2] = system: CA^2+-dependent protein kinase of the wheat embryo
[3] = system: CA^2+- and phopholipid-dependent protein kinase C (PKC) of the rat brain
HBV = conditions: chronically infected patients
Bacillus subtilis = conditions: 0.1 ml; extract 50 mg/ml, streptomycin 10 mg/ml
Staphylococcus aureus = conditions: 0.1 ml; extract 50 mg/ml, streptomycin 10 mg/ml

| Compound | inhibition of cAMP-dependent protein kinase [1] | inhibition of CA^2+-dependent protein kinase [2] | inhibition of protein kinase C (PKC) [3] | cases in which the virus is eliminated from the liver (HBV) | further cases with clearly reduced number of viruses in the blood (HBV) [%] | inhibition zone (Bacillus subtilis) [mm] | inhibition zone (Staphylococcus aureus) [mm] |
| --- | --- | --- | --- | --- | --- | --- | --- |
| O=C1O[C@H]2[C@@H]3OC(=O)c4cc(O)c(O)c(O)c4-c4c(cc(O)c(O)c4O)C(=O)OC[C@H]2O[C@@H](OC(=O)c2cc(O)c(O)c(O)c2)[C@@H]3OC(=O)c2cc(O)c(O)c3c2[C@@H]2C1=CC(=O)[C@](O)(O3)C2(O)O [geraniin] | most effective | most effective | most effective |  |  |  |  |
| O=C1OC2C3OC(=O)C4=CC(=O)C5(O)Oc6c(O)c(O)cc(c6C4C5(O)O)C(=O)OC2C(OC(=O)c2cc(O)c(O)c(O)c2)OC3COC(=O)c2cc(O)c(O)c3c2C2C1=CC(=O)C(O)(O3)C2(O)O (stereo not shown) [amariin] | most effective | most effective | most effective |  |  |  |  |
| phenazine-derivative of the geraniin | most effective | most effective | most effective |  |  |  |  |
| interferon α |  |  |  | 20-30% | 30 |  |  |
| [H]/N=C(/N)N[C@H]1[C@H](O)[C@@H](O)[C@H](O[C@@H]2O[C@@H](C)[C@](O)(C=O)[C@H]2O[C@@H]2O[C@@H](CO)[C@H](O)[C@@H](O)[C@@H]2NC)[C@@H](N/C(N)=N\[H])[C@@H]1O [streptomycin] |  |  |  |  |  | 35 | 35 |
